Laboratory results published in paper PMC9081329, “Pharmacokinetics, Mass Balance, Excretion, and Tissue Distribution of Plasmalogen Precursor PPI-1011” (Frontiers in Cell and Developmental Biology, 2022).

Assay: Single dose tissue distribution study (QWBA, LSC of blood and plasma)
Type: in vivo, Sprague-Dawley rats
Description: Six male rats were administered a single oral dose of [^14C]PPI-1011 at 100 mg/kg (200 μCi/kg) and one rat was sacrificed at each of the following time points after the administration of the dose: 8, 12, 18, 24, 48, or 168 h. Terminal blood was collected by cardiac puncture directly into tubes with K2EDTA, an aliquot was stored at 4°C until LSC was performed for radioactivity, while the remaining blood was processed to plasma and stored at −20°C until LSC. Following blood collection, the carcasses were frozen in a cold bath with hexanes and dry ice for at least 8 min and then dried and stored at −70°C for at least 5 h. The carcasses were transferred to a −20°C freezer for at least 12 h before embedding.
QWBA was used to determine radioactivity concentrations in the caecum (contents and mucosa), large intestine (contents and mucosa), small intestine (contents and mucosa), stomach (contents and mucosa), brain, choroid plexus, spinal cord, bone, skin, adrenal gland, pineal body, pituitary gland, thyroid gland, liver, kidney (cortex, medulla and whole kidney), urinary bladder (contents and wall), brown fat, white fat, eye (lens, uveal tract and whole eye), epididymis, prostate gland, testis, ovary, uterus, lung, exorbital lachrymal gland, Harderian gland, pancreas, salivary gland, skeletal muscle, myocardium, cardiac blood, bone marrow, lymph node, spleen, and thymus. As well, LSC was used to determine the total radioactivity in the whole blood and plasma.
The whole-body cryosectioning technique described by ([Ullberg, 1977]) was the basis for embedding and cryosectioning the rats assigned to this study. Each frozen carcass was shaved, and then the limbs and tail were removed prior to embedding. Chilled (4°C) 3% CMC (low viscosity) was utilized to provide a firm support of reinforced ice around each rat and for a secure attachment to the microtome stage. Upon thorough freezing of the embedding medium surrounding each rat, the frozen CMC block was removed from the freezing bath and four 3/8 inch holes were drilled into the block. One cryosection quality control standard (CQCS) was prepared with a known amount of radioactivity and at least 1 ml aliquots were added to each of the four drilled holes. CQCS data were utilized to evaluate the overall performance of the QWBA assay.
Each frozen rat was sagittally trimmed (50–100 μm) at −20°C until exposure of a few target tissues employing a Leica Cryomacrocut heavy-duty microtome (Leica Microsystems Inc.,). Disposable stainless steel Feather type H45L knives (Feather Safety Razor Co., Ltd.) were utilized for trimming and sectioning each frozen rat. Several thinner sections (50 μm) were discarded prior to obtaining multiple 50 μm sections at various cryosectioning levels for QWBA analysis. Upon the collection of at least 60 target tissues in multiple cryosectioning levels, the cryosections were kept in the Cryomacrocut cryochamber for a minimum of 18 h for dehydration depending upon the number of cryosections within the cryochamber. After dehydration was complete, the cryosections were transferred to ambient temperature for processing. Mounted whole-body cryosections and a set of 15 standards were sandwiched between a standard phosphor screen and an exposure cassette. All cryosections were exposed to the phosphor screen for 4-days in a cabinet protected with lead prior to scanning using a Typhoon PhosphorImager (Cytiva). MCID™ Analysis software (InterFocus Ltd.) was utilized to generate a calibration curve of the STD nominal concentrations (nCi/g) versus PhosphorImager response (counts/μm^2 minus background) by weighted (1/x) linear regression analysis ([Potchoiba et al., 1995]; [Potchoiba et al., 1998]). The linear regression curve was then utilized to determine the concentration (nCi/g) of total radioactivity in whole-body tissues and blood. Radioactivity concentrations were expressed as μg Eq/g based on the specific activity of the compound in the final dose formulations. […]

[1] = 12 h post single oral 100 mg/kg
[2] = 18 h post single oral 100 mg/kg
[3] = 24 h post single oral 100 mg/kg

## CC/C=C\C/C=C\C/C=C\C/C=C\C/C=C\C/C=C\CCC(=O)O[C@H](CO[14CH2]CCCCCCCCCCCCCCC)COC(=O)CCCCC1CCSS1 (stereo partly shown) [[^14C]PPI-1011]
[1]
  Radioactivity concentration, Olfactory Bulb: 2.01 μg equivalents/g
  Radioactivity concentration, Pancreas: 52.7 μg equivalents/g
  Radioactivity concentration, Parotid Gland: 30.4 μg equivalents/g
  Radioactivity concentration, Pineal Gland: 12.1 μg equivalents/g
  Radioactivity concentration, Pituitary Gland: 21.2 μg equivalents/g
  Radioactivity concentration, Preputial Gland: 214 μg equivalents/g
  Radioactivity concentration, Prostate: 11.8 μg equivalents/g
  Radioactivity concentration, Renal Cortex: 46.6 μg equivalents/g
  Radioactivity concentration, Renal Medulla: 53.2 μg equivalents/g
  Radioactivity concentration, Salivary Gland: 31.4 μg equivalents/g
  Radioactivity concentration, Seminal Vesicles: 2.99 μg equivalents/g
  Radioactivity concentration, Skin - Non-Pigmented: 18.0 μg equivalents/g
  Radioactivity concentration, Small Intestines: 347 μg equivalents/g
  Radioactivity concentration, Spinal Cord: 2.76 μg equivalents/g
  Radioactivity concentration, Spleen: 111 μg equivalents/g
  Radioactivity concentration, Stomach: 22.9 μg equivalents/g
  Radioactivity concentration, Testis: 4.12 μg equivalents/g
  Radioactivity concentration, Thalamus: 2.31 μg equivalents/g
  Radioactivity concentration, Thymus: 12.2 μg equivalents/g
  Radioactivity concentration, Thyroid: 43.1 μg equivalents/g
  Radioactivity concentration, Whole Brain: 2.48 μg equivalents/g
[2]
  Radioactivity concentration, Adipose - Brown: 66.0 μg equivalents/g
  Radioactivity concentration, Adipose - Brown (Vessel Wall): 94.2 μg equivalents/g
  Radioactivity concentration, Adipose - Subcutaneous: 73.9 μg equivalents/g
  Radioactivity concentration, Adipose - Visceral: 75.6 μg equivalents/g
  Radioactivity concentration, Adrenal Gland: 185 μg equivalents/g
  Radioactivity concentration, Bladder Wall: 14.5 μg equivalents/g
  Radioactivity concentration, Blood - QWBA: 9.62 μg equivalents/g
  Radioactivity concentration, Bone Marrow: 22.3 μg equivalents/g
  Radioactivity concentration, Bone Surface: 1.25 μg equivalents/g
  Radioactivity concentration, Cecum: 177 μg equivalents/g
  Radioactivity concentration, Cerebellum: 3.03 μg equivalents/g
  Radioactivity concentration, Cerebrum: 2.49 μg equivalents/g
  Radioactivity concentration, Choroid Plexus: 12.8 μg equivalents/g
  Radioactivity concentration, Colliculus: 2.94 μg equivalents/g
  Radioactivity concentration, Diaphragm: 40.4 μg equivalents/g
  Radioactivity concentration, Epididymis: 67.7 μg equivalents/g
  Radioactivity concentration, Esophagus: 15.0 μg equivalents/g
  Radioactivity concentration, Exorbital Lacrimal Gland: 8.74 μg equivalents/g
  Radioactivity concentration, Gastric Mucosa: 70.1 μg equivalents/g
  Radioactivity concentration, Harderian Gland: 14.7 μg equivalents/g
  Radioactivity concentration, Intra-Orbital Lacrimal Gland: 8.91 μg equivalents/g
  Radioactivity concentration, Kidney: 36.1 μg equivalents/g
  Radioactivity concentration, Large Intestines: 154 μg equivalents/g
  Radioactivity concentration, Liver: 121 μg equivalents/g
  Radioactivity concentration, Lung: 45.4 μg equivalents/g
  Radioactivity concentration, Lymph Node: 22.5 μg equivalents/g
  Radioactivity concentration, Medulla Oblongata: 2.23 μg equivalents/g
  Radioactivity concentration, Muscle: 9.63 μg equivalents/g
  Radioactivity concentration, Myocardium: 42.4 μg equivalents/g
  Radioactivity concentration, Nasal Turbinates: 6.43 μg equivalents/g
  Radioactivity concentration, Ocular - Uveal Tract: 5.32 μg equivalents/g
  Radioactivity concentration, Ocular - Whole Eye: 1.65 μg equivalents/g
  Radioactivity concentration, Olfactory Bulb: 1.75 μg equivalents/g
  Radioactivity concentration, Pancreas: 39.8 μg equivalents/g
  Radioactivity concentration, Parotid Gland: 35.2 μg equivalents/g
  Radioactivity concentration, Pineal Gland: 16.2 μg equivalents/g
  Radioactivity concentration, Pituitary Gland: 22.0 μg equivalents/g
  Radioactivity concentration, Preputial Gland: 78.0 μg equivalents/g
  Radioactivity concentration, Prostate: 28.0 μg equivalents/g
  Radioactivity concentration, Renal Cortex: 38.1 μg equivalents/g
  Radioactivity concentration, Renal Medulla: 23.0 μg equivalents/g
  Radioactivity concentration, Salivary Gland: 28.8 μg equivalents/g
  Radioactivity concentration, Skin - Non-Pigmented: 12.0 μg equivalents/g
  Radioactivity concentration, Small Intestines: 239 μg equivalents/g
  Radioactivity concentration, Spinal Cord: 3.20 μg equivalents/g
  Radioactivity concentration, Spleen: 71.3 μg equivalents/g
  Radioactivity concentration, Stomach: 21.6 μg equivalents/g
  Radioactivity concentration, Testis: 5.09 μg equivalents/g
  Radioactivity concentration, Thalamus: 2.20 μg equivalents/g
  Radioactivity concentration, Thymus: 11.8 μg equivalents/g
  Radioactivity concentration, Thyroid: 38.5 μg equivalents/g
  Radioactivity concentration, Whole Brain: 2.70 μg equivalents/g
[3]
  Radioactivity concentration, Adipose - Brown: 133 μg equivalents/g
  Radioactivity concentration, Adipose - Brown (Vessel Wall): 110 μg equivalents/g
  Radioactivity concentration, Adipose - Subcutaneous: 70.1 μg equivalents/g
  Radioactivity concentration, Adipose - Visceral: 71.6 μg equivalents/g
  Radioactivity concentration, Adrenal Gland: 155 μg equivalents/g
  Radioactivity concentration, Bladder Wall: 7.69 μg equivalents/g
  Radioactivity concentration, Blood - QWBA: 5.62 μg equivalents/g
  Radioactivity concentration, Bone Marrow: 18.3 μg equivalents/g
  Radioactivity concentration, Bone Surface: 0.513 μg equivalents/g
  Radioactivity concentration, Cecum: 231 μg equivalents/g
  Radioactivity concentration, Cerebellum: 2.08 μg equivalents/g
  Radioactivity concentration, Cerebrum: 1.61 μg equivalents/g
